From patent US20120316144A1, “ANTIFUNGAL AGENT” (priority 2010, published 2012)

Key:
Malassezia [1] = assay: Antifungal (Malassezia) paper disk test of fractionated ingredients of mastic normal-hexane extract with squalene; format: cell-based; settings: for diameter of antiproliferative circle, First time / diameter of antiproliferative circle, Second time / diameter of antiproliferative circle, Average: Malassezia, Mueller-Hinton media, fraction 5 mg/disk + squalene 25 mg/disk; for diameter of antiproliferative circle, Average: average of two runs; for anti-Malassezia activity (in words): combination with squalene, summary of Table 4
Method: The fractions fractionated in the first example were respectively dissolved in acetone. Paper disks for antibiotic assay which are the same as the paper disks for antibiotic assay used in the third example were impregnated with the obtained respective fraction solutions of 5 mg/disk. Moreover, squalene was added to each of the paper disks for antibiotic assay by 25 mg/disk, to prepare disks to be tested. Then, the respective disks to be tested were vacuum-dried to eliminate the acetone. Further, the Malassezia prepared to be approximately 10^6 CFU/ml was applied to the Mueller-Hinton media. Next, the respective disks to be tested were placed on the Mueller-Hinton media, and cultured for two days under an aerobic condition at 37° C. Then, the diameters (mm) of antiproliferative circles formed around the respective disks to be tested were measured.

Malassezia [2] = assay: Antifungal (Malassezia) paper disk test of mastic normal-hexane extract and squalene; format: cell-based; settings: Mueller-Hinton media, squalene 25 mg/disk alone
Method: Mastic normal-hexane extract (MH) was dissolved in acetone. Then, paper disks for antibiotic assay which are the same as the paper disks for antibiotic assay used in the third example were impregnated with the obtained MH solution, to prepare a disk to be tested impregnated with the MH solution of 5 mg/disk, a disk to be tested impregnated with the MH solution of 10 mg/disk, and a disk to be tested impregnated with the MH solution of 20 mg/disk. These disks to be tested were prepared two each, respectively. Further, the S solution, which was obtained by dissolving squalene (S) in acetone, was added to each of some disks to be tested prepared in this way by 25 mg/disk, to prepare disks of mixture of the mastic normal-hexane extract and squalene (MH+S) as well. Further, as standard controls, paper disks for antibiotic assay which are the same as the paper disks for antibiotic assay used in the third example were impregnated with the S solution of 25 mg/disk, to prepare a disk to be tested. Then, the respective disks to be tested were vacuum-dried to eliminate the acetone. Further, the Malassezia prepared to be approximately 10^6 CFU/ml was applied to the Mueller-Hinton media. […] Then, the diameters (mm) of antiproliferative circles formed around the respective disks to be tested were measured.

Compound | diameter of antiproliferative circle, First time (Malassezia [1]) [mm] | diameter of antiproliferative circle, Second time (Malassezia [1]) [mm] | diameter of antiproliferative circle, Average (Malassezia [1]) [mm] | anti-Malassezia activity (in words) (Malassezia [1]) | Antiproliferative Circles (mm) (Malassezia [2])
CC1(C)C=C2C(=CC[C@]3(C)C2CC[C@@H]2[C@@]4(C)CCC(=O)C(C)(C)[C@@H]4CC[C@]23C)CC1 (stereo partly shown) [Fr. 1, 3-oxo-28-norolean-16,18-diene] | 25 | 22 | 23.5 | potent anti-Malassezia activity | 
CC1(C)CC[C@]2(C=O)CC[C@]3(C)C(=CC[C@@H]4[C@@]5(C)CCC(=O)C(C)(C)[C@@H]5CC[C@]43C)C2C1 (stereo partly shown) [Fr. 3, olean-12-en-3,28-dione] | 25 | 25 | 25 | potent anti-Malassezia activity | 
CC(C)=CCC[C@H](C)[C@@H]1CC[C@]2(C)C3=C(CC[C@@]12C)[C@@]1(C)CC[C@H](O)C(C)(C)[C@@H]1CC3 [Fr. 5-1, Tirucallol] |  |  |  | potent anti-Malassezia activity | 
CC1(C)CC[C@]2(C)CC[C@]3(C)C(=CC[C@@H]4[C@@]5(C)CC[C@H](O)C(C)(C)[C@@H]5CC[C@]43C)C2C1 (stereo partly drawn) [Fr. 5-2, β-amylin] |  |  |  | potent anti-Malassezia activity | 
CC1(C)CCC2(O)CC[C@]3(C)C(=CC[C@@H]4[C@@]5(C)CCC(=O)C(C)(C)[C@@H]5CC[C@]43C)C2C1 (stereo partly shown) [Fr. 6, 3-oxo-17-hydroxy-norolean-12-ene] | 21 | 19 | 20 | potent anti-Malassezia activity | 
CC(C)=CCC[C@](C)(O)[C@H]1CC[C@]2(C)C1CCC1[C@@]3(C)CCC(=O)C(C)(C)[C@@H]3CC[C@]12C (stereo partly shown) [Fr. 8, 3-oxo-20-hydroxy-dammar-24-ene] | 25 | 24 | 24.5 | potent anti-Malassezia activity | 
CC(C)=CCC/C(C)=C/CC/C(C)=C/CC/C=C(\C)CC/C=C(\C)CCC=C(C)C [S, squalene] |  |  |  |  | 11
